From patent US20080064053A1, “Genotoxicity Testing” (priority 2003, published 2008)
“And” between values parts separate entries of the source, which are not always exact repeats. Equal values may be shown once. Read-outs that look alike come from different tables or passages of the source.

Legend:
[1] = tested on: RAD54 promoter-yEGFP reporter; test: Fluorescence assay with intact yeast cells in cuvettes, RAD54-GFP reporter plasmid pWDH445 and rearranged derivatives; assay type: cell-based, Saccharomyces cerevisiae; settings: 0.005% MMS, 15 hours
Description: Starter cultures were initiated by inoculating 1.5 ml of F1 medium (plus appropriate nutritional supplements and 2% glucose) in sterile 15 ml polythene centrifuge tubes with small portions of colonies, picked by inoculating loop from stock plates. These starter cultures were grown for up to 24 hours at 30° C. with shaking (at 120 rpm) and were used as the source of inoculum for the assay cultures. Cells were inoculated into 1.5 ml F1 cultures in 15 ml polythene centrifuge tubes to give an initial OD600 nm of ˜0.1 (typically a 10-15 μl inoculum per 1.5 ml culture). The lids of the tubes were left one-quarter unscrewed, but held in place by masking tape, to ensure maximum oxygenation for GFP maturation. Half of the tubes were treated with 0.005% methyl methanesulphonate (MMS, methanesulphonic acid methyl ester) and half left as unchallenged controls. MMS was purchased as a liquid and this stock solution was taken to be 100%. […] For the measurement of intact yeast cell fluorescence of cells grown in YPD or SD, the cells were washed twice in sterile water to remove traces of autofluorescent medium and resuspended in 1.5 ml of sterile water. […] 4-window cuvettes were necessary since measurement of fluorescence emission is performed perpendicular to the path of excitation light.
Fluorescence measurements were performed with a Perkin-Elmer LS50B Fluorescence Spectrometer (Perkin-Elmer Ltd., Beaconsfield, UK). […] For the yEGFP expressing reporter, the excitation and emission wavelengths were set to 490 nm and 518 nm respectively (due to the altered fluorescence characteristics of yEGFP), with 5 nm slit widths. To account for differences in cell numbers between YPD or SD assay cultures, the OD600 nm was recorded for each cuvette. Similarly, in order to measure protein extraction efficiency, light absorption at 280 nm (OD280 nm) was measured for crude cell extracts. […] The y-axis on uncorrected fluorescence scans gives raw data in the form of machine defined fluorescence intensity (“INT”) units. […]

SOS lux = settings: cited from earlier work
[2] = tested on: RNR2 regulatory element-GFP reporter; test: RNR2-GFP reporter assay (pGenRNR2), cuvette and microplate; assay type: cell-based, Saccharomyces cerevisiae; settings: yeast test strain transformed with pGenRNR2
Excerpt: (§1) In addition to the RAD54 vectors described in the previous Examples, the inventors constructed an FF18984 reporter strain containing a replicative plasmid harbouring an RNR regulatory element. The vectors pGenRNR2 or pGenRNR3 are shown in FIGS. 24 and 25, respectively, and contain the upstream non-coding DNA sequence of the RNR2 gene or RNR3 gene fused to the yeast-enhanced Aequorea victoria GFP gene. A control FF18984 strain containing an identical plasmid except that 2 base pairs have been removed at the start of the GFP gene, such that no GFP is made, was also examined.
In order to test the brightness of the reporter for RNR2 constructs, similar methodology was used as for RAD54 constructs, as described in the previous Examples, but using instead pGENRNR2.

[3] = tested on: yeast strain GenT01 (FF18984); test: GreenScreen assay (GSA), cytotoxicity: final cell density by absorbance; settings: GenT01 yeast, overnight at 25° C.
Description: The following standard protocol was followed. A 1 mM stock of the test chemical was prepared in 2% v/v aqueous DMSO, and used to make 2 identical dilution series across the microplate and a ‘control’ (see below). To achieve this, 150 microlitres of the test chemical solution were put into 2 microplate wells. Each sample was serially diluted by transferring 75 microlitres into 75 microlitres of 2% DMSO, mixing, and then taking 75 microlitres out and into the next well. This produced 9 serial dilutions of 75 microlitres each.
75 microlitres of the yeast suspension were added to each well of the diluted chemical: GenT01 to one series and GenC01 to the second, and to appropriate standards and controls. After the plates were filled, they were sealed using either a gas permeable membrane (Breath-easy, Diversified Biotech, USA) or a plastic lid, and then incubated without shaking, overnight at 25° C.
Following overnight incubation, fluorescence and absorbance data were collected from the microplates. […] Absorbance was measured through a 620 nm filter in both instruments. […] Fluorescence data were divided by absorbance data to give ‘brightness units’, the measure of average GFP induction per cell. […] In this way, one can distinguish between a small number of highly fluorescent cells and a large number of weakly fluorescent cells. In order to correct for induced cellular autofluorescence and intrinsic compound fluorescence, the brightness values for the GenC01 strain were subtracted from those of GenT01. This makes visual assessment of the data more reliable.
The cytotoxicity threshold is set at 80% of the cell density reached by the untreated control cells.
Table 12 lists chemicals/solvents that are often used with test samples, to promote dissolution etc. […] If these chemicals are used to dissolve compound stock solutions, they should also be included in the diluent used to make the compound dilution series. […] Interference of DMSO, a free radical scavenger, in the recombinogenic properties of several oxidising agents has previously been reported.

[4] = tested on: RNR3 regulatory element-GFP reporter; test: RNR3-GFP reporter microplate assay (pGenRNR3); assay type: cell-based, Saccharomyces cerevisiae; settings: yeast test strain transformed with pGenRNR3
Excerpt: as §1
In order to test the brightness of the reporter for RNR3 constructs, similar methodology was used as for RAD54 constructs, as described in the previous Examples, but using instead pGENRNR3.

[5] = tested on: RAD54 promoter-GFP reporter (pGen001); settings: for GSA genotoxicity result: GenT01 yeast, overnight at 25° C., 2% DMSO diluent, no S9
SOS umuC = settings: cited from earlier work

## COS(C)(=O)=O [MMS, methyl methanesulfonate]
[1]; FF18984 cells bearing normal pWDH445
  induction ratio: 7.72 and 5.5
[1]; FF18984 cells re-transformed with modified (rearranged) plasmid
  induction ratio: 5.2
[1]; original bright variant FF18984 cells carrying pWDH445
  induction ratio: 3.27
SOS lux
  SOS LUX ASSAY (M), LEC: 7.3e-05 M
[2]
  brightness/fluorescence of GFP reporter: induced
[3]
  GSA cytotoxicity result: strongly cytotoxic
[4]
  fluorescence induction by the reporter: increases with increasing concentration
[5]
  GSA genotoxicity result: induced
[5]; listed as Methyl methanesulfonate
  GSA genotoxicity result: genotoxic
[5]; S9 −
  GSA (M), lowest effective concentration (LEC): 9.3e-06 M
SOS umuC
  SOS UMUC ASSAY (M), LEC: 0.00015 M
